In brackets after ≈: the same amount, converted by molar mass. Like-named read-outs stand apart in the source and are kept apart here. *1 amine or outer side, *2 acyl side, *3 side chain or, on linkers, in order; H or OH if unused. Where a SMILES comes first, the peptide text is derived from it. Bridges are numbered along the chain shown (N, C = ends). [ ]: non-standard residue; d: D form. The star is where a group is joined. Phe(3,5-F2) = N[C@@H](Cc1cc(F)cc(F)c1)C(=O)O; Pro(4S-Me) = C[C@@H]1CN[C@H](C(=O)O)C1; NHPh(4-CF3) = FC(F)(F)c1ccc(N*)cc1; NH(4-Me-phenyl) = Cc1ccc(N*)cc1; aThr = C[C@H](O)[C@H](N)C(=O)O; Pip = O=C(O)[C@@H]1CCCCN1; CO = O=C([*:1])[*:2]
How the values were obtained:
Type in all cases: cell-based
[1] = tested on: Bacillus subtilis, ATCC 23857; assay: Minimal inhibitory concentration assay (microbroth dilution)
In short: (§1)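 Paired MICs against USA 300 and its ClpP-inactivated counterpart test whether killing runs through ClpP. All strains: two-fold broth dilutions from 200 μM final, ~10^5 cfu/mL inoculum, overnight at 37 °C in air, lowest growth-free concentration read by eye.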

[2] = tested on: Staphylococcus aureus, ATCC 29213; assay: as above; settings: ATCC29213, read-out: Minimal Inhibitory Concentrations S. aureus ATCC 29213
In short: as §1

[3] = tested on: Streptococcus pneumoniae, DAW27; assay: as above; settings: DAW27, read-out: Minimal Inhibitory Concentrations S. pneumoniae DAW27
In short: as §1

[4] = tested on: Staphylococcus aureus, NRS70; assay: as above
In short: as §1

[5] = tested on: Enterococcus faecalis, ATCC 33186; assay: as above
In short: as §1

[6] = tested on: Streptococcus pyogenes, ATCC 700294; assay: as above
In short: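 Plates with two-fold compound dilution series in broth were incubated overnight, aerobically, at 37° C, following CLSI microdilution guidance.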

[7] = tested on: Vero (kidney epithelial cells; ATCC CCL-81); assay: Cytotoxicity assay (CellTiter-Glo cell viability, 72 hours); settings: Vero cells, 72 hours, growth inhibition; read-out: Cytotoxicity IC50
In short: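 Viability measured by CellTiter-Glo luminescence after 72-hour compound exposure (serial dilutions, DMSO control) of Vero monolayers seeded at 5000 cells/well in 10% FBS DMEM. IC50 values are the range of two biologically independent experiments, each run in duplicate.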

[8] = tested on: Staphylococcus aureus, USA 300; assay: Minimal inhibitory concentration assay; settings: USA300, read-out: Minimal Inhibitory Concentrations S. aureus USA 300
In short: as §1

[9] = tested on: Staphylococcus aureus, USA 300 wherein ClpP is inactivated; assay: Minimal inhibitory concentration assay
In short: as §1

[10] = tested on: Streptococcus pneumoniae, R6; assay: Minimal inhibitory concentration assay; settings: read-out: Minimal Inhibitory Concentrations S. pneumoniae R6
In short: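 Microbroth dilution with two-fold serial compound dilutions in broth, incubated aerobically overnight at 37° C. MIC taken as the lowest concentration preventing bacterial growth.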

[11] = Bacillus subtilis, ATCC23857; read-out: Minimal Inhibitory Concentrations B. subtilis ATCC 23857
[12] = Staphylococcus aureus, NRS70; read-out: Minimal Inhibitory Concentrations S. aureus NRS70
[13] = Enterococcus faecalis, ATCC33186; read-out: Minimal Inhibitory Concentrations E. faecalis ATCC 33186
[14] = Streptococcus pyogenes, ATCC700294; read-out: Minimal Inhibitory Concentrations S. pyogenes ATCC 700294
[15] = Bacillus subtilis, ATCC23857, read-out: Minimal Inhibitory Concentrations B. subtilis ATCC 23857
[16] = Staphylococcus aureus, NRS70, read-out: Minimal Inhibitory Concentrations S. aureus NRS70
[17] = Enterococcus faecalis, ATCC33186, read-out: Minimal Inhibitory Concentrations E. faecalis ATCC 33186
[18] = Streptococcus pyogenes, ATCC700294, read-out: Minimal Inhibitory Concentrations S. pyogenes ATCC 700294

MIC [1, 11] [µM] | MIC [3] [µM] | MIC [4, 12] [µM] | MIC [5, 13] [µM] | MIC [6, 14] [µM] | SMILES | MIC [2] [µM] | MIC [1, 15] [µM] | MIC [4, 16] [µM] | MIC [5, 17] [µM] | MIC [6, 18] [µM] | IC50 [7] [µM] | MIC [8] [µM] | Minimal Inhibitory Concentrations S. aureus USA 300 ΔClpP [9] [µM] | MIC [10] [µM]
0.6 (≈ 0.463 µg/mL) | 0.3 (≈ 0.232 µg/mL) | 0.6 (≈ 0.463 µg/mL) | 0.3 (≈ 0.232 µg/mL) | 0.6 (≈ 0.463 µg/mL) | CCc1cccc(NC(=O)N[C@@H](Cc2ccccc2)C(=O)N[C@H]2COC(=O)[C@@H]3C[C@@H](C)CN3C(=O)[C@H](C)NC(=O)[C@@H]3CCCCN3C(=O)[C@@H]3CCCN3C2=O)c1 [Compound 10, (S)—N-((2R,6S,8aS,14aS,20S,23aS)-2,6-dimethyl-5,8,14,19,23-pentaoxooctadecahydro-1H,5H,14H,19H-pyrido[2,1-i]dipyrrolo[2,1-c:2′,1′-l][1]oxa[4,7,10,13]tetraazacyclohexadecin-20-yl)-2-(3-(3-ethylphenyl)ureido)-3-phenylpropanamide] | 0.6 (≈ 0.463 µg/mL) |  |  |  |  |  |  |  | 
0.08 (≈ 0.0691 µg/mL) | 0.04 (≈ 0.0346 µg/mL) | 0.8 (≈ 0.691 µg/mL) | 0.04 (≈ 0.0346 µg/mL) | 0.15 (≈ 0.13 µg/mL) | C[C@@H]1C[C@H]2C(=O)OC[C@H](NC(=O)[C@H](Cc3cc(F)cc(F)c3)NC(=O)Nc3ccc(OC(F)(F)F)cc3)C(=O)N3CCC[C@H]3C(=O)N3CCCC[C@H]3C(=O)N[C@@H](C)C(=O)N2C1 [Compound 13, (S)-3-(3,5-difluorophenyl)-N-((2R,6S,8aS,14aS,20S,23aS)-2,6-dimethyl-5,8,14,19,23-pentaoxooctadecahydro-1H,5H,14H,19H-pyrido[2,1-i]dipyrrolo[2,1-c:2′,1′-l][1]oxa[4,7,10,13]tetraazacyclohexadecin-20-yl)-2-(3-(4-(trifluoromethoxy)phenyl)ureido)propanamide] | 0.05 (≈ 0.0432 µg/mL) |  |  |  |  |  |  |  | 
0.08 (≈ 0.0646 µg/mL) | 0.04 (≈ 0.0323 µg/mL) | 0.08 (≈ 0.0646 µg/mL) | 0.04 (≈ 0.0323 µg/mL) | 0.8 (≈ 0.646 µg/mL) | CCc1ccc(NC(=O)N[C@@H](Cc2cc(F)cc(F)c2)C(=O)N[C@H]2COC(=O)[C@@H]3C[C@@H](C)CN3C(=O)[C@H](C)NC(=O)[C@@H]3CCCCN3C(=O)[C@@H]3CCCN3C2=O)cc1 [Compound 14, (S)-3-(3,5-difluorophenyl)-N-((2R,6S,8aS,14aS,20S,23aS)-2,6-dimethyl-5,8,14,19,23-pentaoxooctadecahydro-1H,5H,14H,19H-pyrido[2,1-i]dipyrrolo[2,1-c:2′,1′-l][1]oxa[4,7,10,13]tetraazacyclohexadecin-20-yl)-2-(3-(4-ethylphenyl)ureido)propanamide] | 0.1 (≈ 0.0808 µg/mL) |  |  |  |  |  |  |  | 
 |  |  |  |  | Cc1ccc(NC(=O)N[C@@H](Cc2cc(F)cc(F)c2)C(=O)N[C@@H]2C(=O)N3CCC[C@H]3C(=O)N3CCCC[C@H]3C(=O)N[C@@H](C)C(=O)N3CCC[C@H]3C(=O)O[C@H]2C)cc1 [Compound 15, (S)-3-(3,5-difluorophenyl)-N-((6S,8aS,14aS,20S,21S,23aS)-6,21-dimethyl-5,8,14,19,23-pentaoxooctadecahydro-1H,5H,14H,19H-pyrido[2,1-i]dipyrrolo[2,1-c:2′,1′-l][1]oxa[4,7,10,13]tetraazacyclohexadecin-20-yl)-2-(3-(p-tolyl)ureido)propanamide] ({NH(4-Me-phenyl)-CO}-[Phe(3,5-F2)][aThr]P[Pip]AP; ester 2-C) | 0.6 (≈ 0.476 µg/mL) | < 0.1 | 0.3 (≈ 0.238 µg/mL) | 0.3 (≈ 0.238 µg/mL) | 0.6 (≈ 0.476 µg/mL) | 39.7 ± 6.6 | < 0.1 | 100 | 0.3 (≈ 0.238 µg/mL)
 |  |  |  |  | C[C@@H]1NC(=O)[C@@H]2CCCCN2C(=O)[C@@H]2CCCN2C(=O)[C@@H](NC(=O)[C@H](Cc2cc(F)cc(F)c2)NC(=O)Nc2ccc(C(F)(F)F)cc2)[C@H](C)OC(=O)[C@@H]2CCCN2C1=O [Compound 16, (S)-3-(3,5-difluorophenyl)-N-((6S,8aS,14aS,20S,21S,23aS)-6,21-dimethyl-5,8,14,19,23-pentaoxooctadecahydro-1H,5H,14H,19H-pyrido[2,1-i]dipyrrolo[2,1-c:2′,1′-l][1]oxa[4,7,10,13]tetraazacyclohexadecin-20-yl)-2-(3-(4-(trifluoromethyl)phenyl)ureido)propanamide] ({NHPh(4-CF3)-CO}-[Phe(3,5-F2)][aThr]P[Pip]AP; ester 2-C) | 0.4 (≈ 0.339 µg/mL) | 0.4 (≈ 0.339 µg/mL) | 0.8 (≈ 0.678 µg/mL) | < 0.1 | 1.5 (≈ 1.27 µg/mL) | 74.3 ± 9 | 0.8 (≈ 0.678 µg/mL) | 3.1 | 0.8 (≈ 0.678 µg/mL)
 |  |  |  |  | Cc1ccc(NC(=O)N[C@@H](Cc2cc(F)cc(F)c2)C(=O)N[C@@H]2C(=O)N3CCC[C@H]3C(=O)N3CCCC[C@H]3C(=O)N[C@@H](C)C(=O)N3C[C@@H](C)C[C@H]3C(=O)O[C@H]2C)cc1 [Compound 18, (S)-3-(3,5-difluorophenyl)-2-(3-(p-tolyl)ureido)-N-((2R,6S,8aS,14aS,20S,21S,23aS)-2,6,21-trimethyl-5,8,14,19,23-pentaoxooctadecahydro-1H,5H,14H,19H-pyrido[2,1-i]dipyrrolo[2,1-c:2′,1′-l][1]oxa[4,7,10,13]tetraazacyclohexadecin-20-yl)propanamide] ({NH(4-Me-phenyl)-CO}-[Phe(3,5-F2)][aThr]P[Pip]A[Pro(4S-Me)]; ester 2-C) | 0.1 (≈ 0.0808 µg/mL) | < 0.1 | 0.1 (≈ 0.0808 µg/mL) | 0.8 (≈ 0.646 µg/mL) | < 0.1 | 26.7 ± 3.6 | 0.1 (≈ 0.0808 µg/mL) | 100 | < 0.1
 |  |  |  |  | C[C@H]1C[C@H]2C(=O)O[C@@H](C)[C@H](NC(=O)[C@H](Cc3cc(F)cc(F)c3)NC(=O)Nc3ccc(C(F)(F)F)cc3)C(=O)N3CCC[C@H]3C(=O)N3CCCC[C@H]3C(=O)N[C@@H](C)C(=O)N2C1 [Compound 19, (S)-3-(3,5-difluorophenyl)-2-(3-(4-(trifluoromethyl)phenyl)ureido)-N-((2R,6S,8aS,14aS,20S,21S,23aS)-2,6,21-trimethyl-5,8,14,19,23-pentaoxooctadecahydro-1H,5H,14H,19H-pyrido[2,1-i]dipyrrolo[2,1-c:2′,1′-l][1]oxa[4,7,10,13]tetraazacyclohexadecin-20-yl)propanamide] ({NHPh(4-CF3)-CO}-[Phe(3,5-F2)][aThr]P[Pip]A[Pro(4S-Me)]; ester 2-C) | 0.1 (≈ 0.0862 µg/mL) | < 0.1 | 0.1 (≈ 0.0862 µg/mL) | 0.39 (≈ 0.336 µg/mL) | 0.4 (≈ 0.345 µg/mL) | 36.8 ± 4.1 | 0.1 (≈ 0.0862 µg/mL) | 6.2 | 0.8 (≈ 0.689 µg/mL)
 |  |  |  |  | Cc1ccc(NC(=O)N[C@@H](Cc2ccccc2)C(=O)N[C@H]2COC(=O)[C@@H]3C[C@@H](C)CN3C(=O)[C@H](C)NC(=O)[C@@H]3CCCCN3C(=O)[C@@H]3CCCN3C2=O)cc1 [Compound 23, (S)—N-((2R,6S,8aS,14aS,20S,23aS)-2,6-dimethyl-5,8,14,19,23-pentaoxooctadecahydro-1H,5H,14H,19H-pyrido[2,1-i]dipyrrolo[2,1-c:2′,1′-l][1]oxa[4,7,10,13]tetraazacyclohexadecin-20-yl)-3-phenyl-2-(3-(p-tolyl)ureido)propanamide] | 0.4 (≈ 0.303 µg/mL) | < 0.2 | 0.4 (≈ 0.303 µg/mL) | < 0.2 | < 0.2 | 74 ± 7.7 | 0.1 (≈ 0.0758 µg/mL) |  | < 0.2

SMILES | MIC [1, 11] [µM] | MIC [3] [µM] | MIC [4, 12] [µM] | MIC [5, 13] [µM] | MIC [6, 14] [µM] | MIC [2] [µM] | MIC [1, 15] [µM] | MIC [4, 16] [µM] | MIC [5, 17] [µM] | MIC [6, 18] [µM] | IC50 [7] [µM] | MIC [8] [µM] | Minimal Inhibitory Concentrations S. aureus USA 300 ΔClpP [9] [µM] | MIC [10] [µM]
C[C@@H]1C[C@H]2C(=O)OC[C@H](NC(=O)[C@H](Cc3ccccc3)NC(=O)Nc3ccc4c(c3)CCN4C)C(=O)N3CCC[C@H]3C(=O)N3CCCC[C@H]3C(=O)N[C@@H](C)C(=O)N2C1 [Compound 11, (S)—N-((2R,6S,8aS,14aS,20S,23aS)-2,6-dimethyl-5,8,14,19,23-pentaoxooctadecahydro-1H,5H,14H,19H-pyrido[2,1-i]dipyrrolo[2,1-c:2′,1′-l][1]oxa[4,7,10,13]tetraazacyclohexadecin-20-yl)-2-(3-(1-methylindolin-5-yl)ureido)-3-phenylpropanamide] |  | 0.3 (≈ 0.24 µg/mL) |  |  |  | 2.5 (≈ 2 µg/mL) | 1.25 (≈ 0.999 µg/mL) | 1.25 (≈ 0.999 µg/mL) | 0.6 (≈ 0.479 µg/mL) | 0.6 (≈ 0.479 µg/mL) | 76 ± 10.6 |  |  | 
CN(C)[C@@H]1C(O)=C(C(N)=O)C(=O)[C@@]2(O)C(O)=C3C(=O)c4c(O)cccc4[C@@](C)(O)[C@H]3C[C@@H]12 [Tetracycline, tetracycline, reference compound] | 1.6 (≈ 0.711 µg/mL) | 0.1 (≈ 0.0444 µg/mL) | 0.05 (≈ 0.0222 µg/mL) | 0.05 (≈ 0.0222 µg/mL) | 0.1 (≈ 0.0444 µg/mL) | 0.1 (≈ 0.0444 µg/mL) |  |  |  |  |  | 0.1 (≈ 0.0444 µg/mL) |  | 
